One block for each substance: values may come before it.
Key:
plasma kallikrein = plasma kallikrein (Homo sapiens, UniProt P03952); details: WO 89/10374; cited from earlier work
granulocyte elastase = target: T1, granulocyte elastase (Homo sapiens, UniProt P08246); details: cited from earlier work
T1 sequence (P08246 30-267): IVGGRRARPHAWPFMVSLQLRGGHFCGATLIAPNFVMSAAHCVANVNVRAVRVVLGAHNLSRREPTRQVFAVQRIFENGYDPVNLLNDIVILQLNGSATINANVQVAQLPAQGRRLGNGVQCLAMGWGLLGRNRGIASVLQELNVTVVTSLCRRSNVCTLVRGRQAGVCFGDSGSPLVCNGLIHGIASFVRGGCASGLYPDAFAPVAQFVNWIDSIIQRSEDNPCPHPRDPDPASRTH

Leukocyte Elastase = target: T2, Leukocyte Elastase (Homo sapiens, UniProt P08246); experiment: Protease inhibitory activity assay, leukocyte elastase; format: biochemical; details: 1 μM inhibitor; MeO-Suc-Ala-Ala-Pro-Val-pNA 0.6 mM; 25° C.
T2 construct: purified at Novo Nordisk A/S; tissue Novo Nordisk A/S (purified there); host or cells: leukocytes
T2 sequence (P08246 30-267): T1 sequence (P08246 30-267)
Protocol: MeO--Suc--Ala--Ala--Pro--Val--pNA
(§1) purified at Novo Nordisk A/S
(§2) Inhibition assays were performed in microtiter wells in a total volume of 300 μl in 10 mM NaCl, 50 mM Tris-HCl (pH 7.4), 0.01% TWEEN80 (Polyoxyethylenesorbitan monoleate). The reactions were incubated at 25° C. for ten minutes after which the appropriate chromogenic substrate was added to the final concentration listed in Table 2 and the final reaction was incubated for thirty minutes at 25° C. Amidolytic activity was measured at 405 nm or by fluorescence Em at 460 nm.

[1] = target: T3, PL Kallikrein (plasma kallikrein) (Homo sapiens, UniProt P03952); experiment: Protease inhibitory activity assay, plasma kallikrein; format: biochemical; details: 1 μM inhibitor; PL kallikrein 3 nM; H-D-Pro-Phe-Arg-pNA 0.6 mM; 25° C.
T3 construct: purchased Kabi
T3 sequence (P03952 20-390 limits assumed): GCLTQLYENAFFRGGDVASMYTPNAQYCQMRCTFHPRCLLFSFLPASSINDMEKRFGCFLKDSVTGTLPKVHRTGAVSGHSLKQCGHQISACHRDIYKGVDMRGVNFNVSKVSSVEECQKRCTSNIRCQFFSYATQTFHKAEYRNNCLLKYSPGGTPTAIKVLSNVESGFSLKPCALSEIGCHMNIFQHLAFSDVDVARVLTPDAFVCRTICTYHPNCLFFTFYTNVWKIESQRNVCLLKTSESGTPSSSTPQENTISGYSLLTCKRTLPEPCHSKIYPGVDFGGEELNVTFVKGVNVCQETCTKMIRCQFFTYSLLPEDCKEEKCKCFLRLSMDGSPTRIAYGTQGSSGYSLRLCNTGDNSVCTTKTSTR
T3 sequence (P03952 391-638 limits assumed): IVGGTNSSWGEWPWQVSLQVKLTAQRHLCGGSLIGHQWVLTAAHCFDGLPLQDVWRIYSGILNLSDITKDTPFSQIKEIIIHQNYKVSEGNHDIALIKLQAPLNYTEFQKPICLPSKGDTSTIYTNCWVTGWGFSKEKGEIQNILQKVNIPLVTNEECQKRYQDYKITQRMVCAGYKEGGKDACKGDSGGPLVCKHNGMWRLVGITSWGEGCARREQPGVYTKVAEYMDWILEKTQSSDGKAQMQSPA
Protocol: (§3) H--D--Pro--Phe--Arg--pNA
(§4) Abbreviations in Table 2: rec. refers to recombinant, GL kallikrein refer
(§5) to glandular kallikrein, and PL kallikrein refers to plasma kallikrein.
as §2

[2] = target: T4, rec. Protein Ca (activated protein C) (Homo sapiens, UniProt P04070); experiment: Protease inhibitory activity assay, activated protein C; format: biochemical; details: 1 μM inhibitor; rec. Protein Ca 5 nM; <Glu-Pro-Arg-pNA 0.6 mM; 25° C.
T4 construct: purchased Novo Nordisk A/S
T4 sequence (P04070 43-197 limits assumed): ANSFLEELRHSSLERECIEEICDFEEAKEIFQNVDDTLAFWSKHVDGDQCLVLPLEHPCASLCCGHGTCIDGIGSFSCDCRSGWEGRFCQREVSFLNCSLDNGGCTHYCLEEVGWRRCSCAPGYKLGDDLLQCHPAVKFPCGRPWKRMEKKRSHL
T4 sequence (P04070 212-461 limits assumed): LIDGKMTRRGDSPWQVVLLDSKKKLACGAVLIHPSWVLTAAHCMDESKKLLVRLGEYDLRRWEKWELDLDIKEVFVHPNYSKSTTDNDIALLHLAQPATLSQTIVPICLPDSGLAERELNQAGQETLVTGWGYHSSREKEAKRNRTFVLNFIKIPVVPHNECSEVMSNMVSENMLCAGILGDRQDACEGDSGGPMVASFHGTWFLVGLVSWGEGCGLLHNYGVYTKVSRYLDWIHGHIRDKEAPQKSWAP
Protocol: as §2
r.h. refers to recombinant human, h. refers to human, protein Ca refers t
activated protein C; APPH refers to the KunitzType inhibitor domain of […]

Trypsin = experiment: Protease inhibitory activity assay, trypsin; format: biochemical; details: 1 μM inhibitor; trypsin 8 nM; H-D-Val-Leu-Lys-pNA 0.6 mM; 25° C.
Protocol: Trypsin (8 nM) H--D--Val--Leu--Lys--pNA
as §2

[3] = high doses; cardiac surgery including cardiopulmonary bypass operations; cited from earlier work
human Factor Xa = target: T5, human Factor Xa (Homo sapiens, UniProt P00742); experiment: Protease inhibitory activity assay, Factor Xa; format: biochemical; details: 1 μM inhibitor; Factor Xa 3 nM; MeO-CO-CHA-Gly-Arg-pNA 0.3 mM; 25° C.
T5 construct: human Factor Xa (3 nM); purchased Dr. I. Schousboe, Copenhagen, Denmark
T5 sequence (P00742 41-179 limits assumed): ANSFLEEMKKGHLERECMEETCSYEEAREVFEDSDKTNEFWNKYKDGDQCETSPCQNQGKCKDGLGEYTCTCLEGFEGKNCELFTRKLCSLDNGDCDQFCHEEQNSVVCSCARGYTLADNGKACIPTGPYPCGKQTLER
T5 sequence (P00742 235-488 limits assumed): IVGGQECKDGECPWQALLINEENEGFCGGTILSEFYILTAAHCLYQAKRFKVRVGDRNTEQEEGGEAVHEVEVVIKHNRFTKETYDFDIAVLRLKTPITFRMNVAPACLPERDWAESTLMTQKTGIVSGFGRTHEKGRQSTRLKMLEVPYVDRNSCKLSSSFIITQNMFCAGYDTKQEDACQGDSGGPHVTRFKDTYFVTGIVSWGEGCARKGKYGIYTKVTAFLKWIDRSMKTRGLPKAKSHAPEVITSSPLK
Protocol: The reactions were incubated at 25° C. for ten minutes after which the appropriate chromogenic substrate was added to the final concentration listed in Table 2 and the final reaction was incubated for thirty minutes at 25° C. Amidolytic activity was measured at 405 nm or by fluorescence Em at 460 nm.

rec. human Factor VIIa = target: T6, rec. human Factor VIIa (Homo sapiens, UniProt P08709); experiment: Protease inhibitory activity assay, Factor VIIa; format: biochemical; details: 1 μM inhibitor; Factor VIIa 300 nM; H-D-Ile-Pro-Arg-pNA 0.6 mM; 25° C.
T6 construct: rec. human Factor VIIa; purchased Novo Nordisk A/S
T6 sequence (P08709 61-212 limits assumed): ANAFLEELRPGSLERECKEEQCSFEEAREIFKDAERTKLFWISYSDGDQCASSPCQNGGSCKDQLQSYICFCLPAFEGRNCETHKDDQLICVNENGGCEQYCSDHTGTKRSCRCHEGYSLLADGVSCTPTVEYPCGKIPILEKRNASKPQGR
T6 sequence (P08709 213-466 limits assumed): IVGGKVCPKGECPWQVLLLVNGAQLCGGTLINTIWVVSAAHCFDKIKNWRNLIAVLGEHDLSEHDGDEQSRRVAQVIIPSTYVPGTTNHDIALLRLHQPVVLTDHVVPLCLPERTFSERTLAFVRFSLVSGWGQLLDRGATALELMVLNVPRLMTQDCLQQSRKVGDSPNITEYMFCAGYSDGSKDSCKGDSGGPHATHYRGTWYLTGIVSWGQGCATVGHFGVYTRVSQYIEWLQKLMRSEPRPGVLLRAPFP
Protocol: H--D--Ile--Pro--Arg--pNA
as §2

human Factor XIIa = target: T7, human Factor XIIa (Homo sapiens, UniProt P00748); experiment: Protease inhibitory activity assay, Factor XIIa; format: biochemical; details: 1 μM inhibitor; Factor XIIa 30 nM; H-D-Pro-Phe-Arg-pNA 0.6 mM; 25° C.
T7 construct: human Factor XIIa (30 nM); purchased Dr. Walt Kisiel, University of New Mexico, Albuquerque, NM
T7 sequence (P00748 20-372 limits assumed): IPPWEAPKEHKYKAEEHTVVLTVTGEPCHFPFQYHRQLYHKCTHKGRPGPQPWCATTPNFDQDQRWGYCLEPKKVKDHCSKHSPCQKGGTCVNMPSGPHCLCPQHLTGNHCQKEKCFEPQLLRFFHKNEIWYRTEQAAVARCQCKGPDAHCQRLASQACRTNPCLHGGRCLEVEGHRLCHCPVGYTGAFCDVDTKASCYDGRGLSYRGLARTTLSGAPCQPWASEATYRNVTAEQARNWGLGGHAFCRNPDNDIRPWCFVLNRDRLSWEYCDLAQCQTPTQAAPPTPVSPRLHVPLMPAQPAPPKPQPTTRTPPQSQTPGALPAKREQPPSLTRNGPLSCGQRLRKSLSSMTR
T7 sequence (P00748 373-615 limits assumed): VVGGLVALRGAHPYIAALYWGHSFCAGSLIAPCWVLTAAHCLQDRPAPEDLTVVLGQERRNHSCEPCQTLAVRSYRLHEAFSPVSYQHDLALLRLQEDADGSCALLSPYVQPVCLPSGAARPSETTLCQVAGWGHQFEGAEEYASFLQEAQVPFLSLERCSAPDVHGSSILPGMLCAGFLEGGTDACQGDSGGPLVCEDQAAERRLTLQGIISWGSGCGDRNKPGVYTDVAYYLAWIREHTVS
Protocol: human Factor XIIa (30 nM)
as §3, §2

Plasmin = target: T8, Plasmin (Homo sapiens, UniProt P00747); experiment: Protease inhibitory activity assay, plasmin; format: biochemical; details: 1 μM inhibitor; plasmin 10 nM; H-D-Val-Leu-Lys-pNA 0.6 mM; 25° C.
T8 construct: Plasmin (10 nM); purchased Kabi
T8 sequence (P00747 97-580 limits assumed): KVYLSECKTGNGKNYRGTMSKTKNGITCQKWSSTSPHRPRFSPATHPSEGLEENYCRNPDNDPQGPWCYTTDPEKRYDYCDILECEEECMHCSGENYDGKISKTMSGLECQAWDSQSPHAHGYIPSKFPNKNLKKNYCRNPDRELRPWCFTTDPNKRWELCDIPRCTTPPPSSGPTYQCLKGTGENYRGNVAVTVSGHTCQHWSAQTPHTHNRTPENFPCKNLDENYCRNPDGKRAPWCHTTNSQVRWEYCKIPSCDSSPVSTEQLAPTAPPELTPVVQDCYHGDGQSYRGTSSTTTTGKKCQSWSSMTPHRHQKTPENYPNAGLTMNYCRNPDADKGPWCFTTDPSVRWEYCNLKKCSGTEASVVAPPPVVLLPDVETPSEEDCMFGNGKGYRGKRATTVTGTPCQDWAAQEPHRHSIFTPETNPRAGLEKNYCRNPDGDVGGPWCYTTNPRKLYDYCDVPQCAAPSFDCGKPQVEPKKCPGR
T8 sequence (P00747 581-810 limits assumed): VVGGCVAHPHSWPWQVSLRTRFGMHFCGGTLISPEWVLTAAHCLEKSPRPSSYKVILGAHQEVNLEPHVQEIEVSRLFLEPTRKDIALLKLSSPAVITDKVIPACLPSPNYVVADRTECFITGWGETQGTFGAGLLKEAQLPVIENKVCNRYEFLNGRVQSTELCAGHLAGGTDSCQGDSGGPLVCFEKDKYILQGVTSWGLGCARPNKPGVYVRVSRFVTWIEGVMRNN
Protocol: H--D--Val--Leu--Lys--pNA
as §2

Urokinase = target: T9, Urokinase (Homo sapiens, UniProt P00749); experiment: Protease inhibitory activity assay, urokinase; format: biochemical; details: 1 μM inhibitor; urokinase 5 nM; <Glu-Gly-Arg-pNA 0.6 mM; 25° C.
T9 construct: purchased Serono, Freigung, Germany
Protocol: as §2

human Factor XIa = target: T10, human Factor XIa (Homo sapiens, UniProt P03951); experiment: Protease inhibitory activity assay, Factor XIa; format: biochemical; details: 1 μM inhibitor; Factor XIa 1 nM; Boc-Glu(OBzl)-Ala-Arg-MCA 0.12 mM; 25° C.
T10 construct: human Factor XIa (1 nM); purchased Dr. Kazuo Fujikawa, University of Washington, Seattle, WA
T10 sequence (P03951 19-387 limits assumed): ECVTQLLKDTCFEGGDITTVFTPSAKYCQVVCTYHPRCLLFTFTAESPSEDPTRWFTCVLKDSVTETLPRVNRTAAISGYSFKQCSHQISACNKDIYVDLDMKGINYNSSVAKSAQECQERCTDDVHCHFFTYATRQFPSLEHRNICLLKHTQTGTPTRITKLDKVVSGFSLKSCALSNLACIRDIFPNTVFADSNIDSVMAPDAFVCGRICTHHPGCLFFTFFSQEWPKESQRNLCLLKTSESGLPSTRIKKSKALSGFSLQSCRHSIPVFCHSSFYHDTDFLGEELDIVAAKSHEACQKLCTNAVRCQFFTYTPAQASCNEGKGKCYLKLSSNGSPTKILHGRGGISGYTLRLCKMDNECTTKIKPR
T10 sequence (P03951 388-625 limits assumed): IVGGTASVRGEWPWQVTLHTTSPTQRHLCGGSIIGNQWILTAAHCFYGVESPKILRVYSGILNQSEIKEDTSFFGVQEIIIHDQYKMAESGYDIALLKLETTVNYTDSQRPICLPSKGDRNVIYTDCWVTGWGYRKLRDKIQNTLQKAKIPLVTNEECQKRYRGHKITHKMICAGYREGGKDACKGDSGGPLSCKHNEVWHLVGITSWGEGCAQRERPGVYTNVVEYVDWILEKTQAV
Protocol: Boc--Glu(OBzl)--Ala--Arg--MCA
as §2

Cathepsin G = target: T11, Cathepsin G (Homo sapiens, UniProt P08311); experiment: Protease inhibitory activity assay, cathepsin G; format: biochemical; details: 1 μM inhibitor; Suc-Ala-Ala-Pro-Phe-pNA 0.6 mM; 25° C.
T11 construct: purified at Novo Nordisk A/S; tissue Novo Nordisk A/S (purified there); host or cells: leukocytes (by the cited method)
T11 sequence (P08311 21-255): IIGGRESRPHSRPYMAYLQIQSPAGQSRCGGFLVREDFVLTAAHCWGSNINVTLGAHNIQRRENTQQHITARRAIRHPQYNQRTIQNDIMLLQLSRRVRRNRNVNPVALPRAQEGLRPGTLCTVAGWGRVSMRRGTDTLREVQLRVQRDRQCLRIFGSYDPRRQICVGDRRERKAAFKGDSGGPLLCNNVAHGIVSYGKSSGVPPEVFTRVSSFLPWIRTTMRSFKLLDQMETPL
Protocol: Cathepsin G Suc--Ala--Ala--Pro--Phe--pNA
as §1
(0.6 mM) (SEQ ID NO: 19)
as §2

kidneys = details: in vivo, repeated injections of relatively high doses; rats, rabbits and dogs; cited from earlier work
collagenase = details: Wenzel and Tschesche 1981; cited from earlier work
[4] = test system: GL Kallikrein (glandular kallikrein); experiment: Protease inhibitory activity assay, glandular kallikrein; format: biochemical; details: 1 μM inhibitor; GL kallikrein 1 U/ml; H-D-Val-Leu-Arg-pNA 0.6 mM; 25° C.
Protocol: H--D--Val--Leu--Arg--pNA
as §4, §5, §2

Chymotrypsin = experiment: Protease inhibitory activity assay, chymotrypsin; format: biochemical; details: 1 μM inhibitor; chymotrypsin 2.5 nM; MeO-Suc-Arg-Pro-Tyr-pNA 0.6 mM; 25° C.
Protocol: MeO--Suc--Arg--Pro--Tyr--pNA
as §2

Sequence of plasma kallikrein (P03952 20-638, species assumed): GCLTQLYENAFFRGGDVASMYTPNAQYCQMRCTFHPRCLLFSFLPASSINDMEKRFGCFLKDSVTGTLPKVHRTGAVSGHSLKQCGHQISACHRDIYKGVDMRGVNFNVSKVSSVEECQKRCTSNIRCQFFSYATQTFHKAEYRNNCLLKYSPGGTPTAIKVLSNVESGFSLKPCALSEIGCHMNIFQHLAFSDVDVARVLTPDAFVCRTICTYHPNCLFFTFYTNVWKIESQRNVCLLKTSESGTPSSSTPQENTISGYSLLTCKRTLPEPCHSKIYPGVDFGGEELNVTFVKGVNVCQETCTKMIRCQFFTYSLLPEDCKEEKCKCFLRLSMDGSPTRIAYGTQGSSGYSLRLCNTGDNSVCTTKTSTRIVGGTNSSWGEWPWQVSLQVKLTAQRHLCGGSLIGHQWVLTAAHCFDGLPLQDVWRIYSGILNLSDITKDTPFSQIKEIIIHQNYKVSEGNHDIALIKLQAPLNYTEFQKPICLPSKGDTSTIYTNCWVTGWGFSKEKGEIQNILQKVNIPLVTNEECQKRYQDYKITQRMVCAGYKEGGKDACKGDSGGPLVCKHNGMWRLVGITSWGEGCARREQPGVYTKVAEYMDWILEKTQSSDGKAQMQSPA

Substance: aprotinin (3-58, Arg15, Ala17, Ser42)
- plasma kallikrein inhibitory effect (plasma kallikrein): excellent

Substance: Aprotinin (1-58, Ala15)
- effect on elastase (granulocyte elastase; literature): weak effect

Substance: aprotinin [BPTI]
- % Inhibition, Leukocyte Elastase (Leukocyte Elastase): 1%
- % Inhibition, PL Kallikrein [1]: 83%
- % Inhibition, r.h. Protein Ca [2]: 38%
- % Inhibition, Trypsin (Trypsin): 100%
- blood loss in connection with cardiac surgery [3]: significantly reduces blood loss
- % Inhibition, h. Factor Xa (human Factor Xa): 1%
- % Inhibition, r.h. Factor VIIa (rec. human Factor VIIa): 1%
- % Inhibition, h. Factor XIIa (human Factor XIIa): 2%
- % Inhibition, Plasmin (Plasmin): 100%
- % Inhibition, Urokinase (Urokinase): 1%
- % Inhibition, h. Factor XIa (human Factor XIa): 59%
- % Inhibition, Cathepsin G (Cathepsin G): 4%
- nephrotoxic effect (kidneys): nephrotoxic effect

Substance: aprotinin (1-58, Val15)
- selectivity for granulocyte elastase (granulocyte elastase; Wenzel and Tschesche 1981): relatively high selectivity
- inhibitory effect on collagenase (collagenase): inhibitory effect

- % Inhibition, Leukocyte Elastase (Leukocyte Elastase): 6%
- % Inhibition, PL Kallikrein [1]: 71%
- % Inhibition, Plasmin (Plasmin): 90%
- % Inhibition, Urokinase (Urokinase): 0%
- % Inhibition, Cathepsin G (Cathepsin G): 16%
Substance: APP: amyloid protein precursor Kunitz-type inhibitor domain (Example 2E, SEQ ID NO:17), expressed in yeast (EVCSEQAETGPCRAMISRWYFDVTEGKCAPFFYGGCGGNRNNFDTEEYCMAVCGSA)
- % Inhibition, GI Kallikrein [4]: 82%
- % Inhibition, Trypsin (Trypsin): 99.7%
- % Inhibition, Chymotrypsin (Chymotrypsin): 94%

Reference: patent publication US5677146A, “Human amyloid protein precursor homolog and kunitz-type inhibitor” (Zymogenetics, Inc., priority 1995, dated 1997)
